Reference: US8710001B2, “PEGylated, extended insulins” (Novo Nordisk A/S, priority 2006, dated 2014)

biological target: human insulin receptor, A-isoform (without exon 11) (Homo sapiens, UniProt P06213); test: Insulin receptor binding, SPA (Scintillation Proximity Assay) microtiterplate antibody capture assay; conditions: affinity relative to human insulin; purified recombinant human insulin receptor; A14Tyr[125I]-human insulin tracer; 16 hours incubation
Protocol: The affinity of the insulin derivatives of this invention for the human insulin receptor is determined by a SPA assay (Scintillation Proximity Assay) microtiterplate antibody capture assay. SPA-PVT antibody-binding beads, anti-mouse reagent (Amersham Biosciences, Cat No. PRNQ0017) are mixed with 25 ml of binding buffer (100 mM HEPES pH 7.8; 100 mM sodium chloride, 10 mM MgSO4, 0.025% Tween-20). Reagent mix for a single Packard Optiplate (Packard No. 6005190) is composed of 2.4 μl of a 1:5000 diluted purified recombinant human insulin receptor (either with or without exon 11), an amount of a stock solution of A14Tyr[^125I]-human insulin corresponding to 5000 cpm per 100 μl of reagent mix, 12 μl of a 1:1000 dilution of F12 antibody, 3 ml of SPA-beads and binding buffer to a total of 12 ml. A total of 100 μl reagent mix is then added to each well in the Packard Optiplate and a dilution series of the insulin derivative is made in the Optiplate from appropriate samples. The samples are then incubated for 16 hours while gently shaken. The phases are the then separated by centrifugation for 1 min and the plates counted in a Topcounter. The binding data were fitted using the nonlinear regression algorithm in the GraphPad Prism 2.01 (GraphPad Software, San Diego, Calif.).

Sequence of human insulin receptor, A-isoform (without exon 11) (P06213 28-746 isoform P06213-2 limits assumed): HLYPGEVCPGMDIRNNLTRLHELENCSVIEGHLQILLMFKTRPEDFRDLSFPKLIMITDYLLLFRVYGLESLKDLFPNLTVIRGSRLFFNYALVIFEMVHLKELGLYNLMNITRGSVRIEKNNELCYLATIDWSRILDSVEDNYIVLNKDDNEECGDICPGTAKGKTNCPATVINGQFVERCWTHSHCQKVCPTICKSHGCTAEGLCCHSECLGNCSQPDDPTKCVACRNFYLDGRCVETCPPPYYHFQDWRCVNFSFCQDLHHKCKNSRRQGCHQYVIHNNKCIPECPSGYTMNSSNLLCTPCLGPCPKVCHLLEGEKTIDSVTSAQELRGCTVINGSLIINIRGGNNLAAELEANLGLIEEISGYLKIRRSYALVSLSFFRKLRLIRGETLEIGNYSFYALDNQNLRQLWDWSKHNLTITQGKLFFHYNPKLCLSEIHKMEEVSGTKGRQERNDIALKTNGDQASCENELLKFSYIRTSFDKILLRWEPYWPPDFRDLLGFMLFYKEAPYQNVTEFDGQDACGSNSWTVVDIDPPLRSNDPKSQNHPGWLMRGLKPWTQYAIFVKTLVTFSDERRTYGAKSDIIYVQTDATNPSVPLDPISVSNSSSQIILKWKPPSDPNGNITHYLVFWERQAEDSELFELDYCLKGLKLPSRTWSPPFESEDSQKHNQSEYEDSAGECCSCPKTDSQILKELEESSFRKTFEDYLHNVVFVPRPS
Sequence of human insulin receptor, A-isoform (without exon 11) (P06213 763-1382 partner limits assumed): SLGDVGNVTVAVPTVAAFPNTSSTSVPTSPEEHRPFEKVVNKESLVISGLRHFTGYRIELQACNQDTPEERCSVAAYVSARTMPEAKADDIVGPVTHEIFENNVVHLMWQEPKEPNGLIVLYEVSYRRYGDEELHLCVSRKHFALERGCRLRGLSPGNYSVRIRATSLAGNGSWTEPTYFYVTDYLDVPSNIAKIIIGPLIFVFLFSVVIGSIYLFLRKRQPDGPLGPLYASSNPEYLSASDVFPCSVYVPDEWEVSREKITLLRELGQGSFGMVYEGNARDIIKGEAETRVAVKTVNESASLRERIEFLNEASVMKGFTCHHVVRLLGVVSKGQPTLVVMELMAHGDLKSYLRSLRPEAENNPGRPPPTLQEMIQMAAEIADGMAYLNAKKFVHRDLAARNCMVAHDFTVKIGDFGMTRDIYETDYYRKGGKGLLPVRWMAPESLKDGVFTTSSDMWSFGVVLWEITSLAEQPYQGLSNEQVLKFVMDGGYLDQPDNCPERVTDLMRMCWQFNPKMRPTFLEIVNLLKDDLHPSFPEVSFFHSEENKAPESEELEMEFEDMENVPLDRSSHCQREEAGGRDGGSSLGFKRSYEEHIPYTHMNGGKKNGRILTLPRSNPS

Substance | Insulin receptor binding, A-isoform (without exon 11) Relative to human insulin
A22K(N^ε(mdPEG12)3-dPEG4-yl-dPEG12-yl), B29R, desB30 Human Insulin [Example 19] | 106%
B29Q, B31K(N^ε(mPEG2000-Propionyl)) Human Insulin [Example 22] | 14%
A22G, A23K(N^εmPEG2000-Propionyl), B29R, desB30 Human Insulin [Example 8] | 58%
A22K(N^ε-mPEG2000-Propionyl), B29R, desB30 Human Insulin [Example 1] | 90%
A22G, A23G, A24G, A25K(N^εmPEG750-Propionyl), B29R, desB30 Human Insulin [Example 7] | 44%
A14E, A22K(N^ε(mdPEG12)3-dPEG4-yl), B25H, B29R, desB30 Human Insulin [Example 17] | 19%
A14E, A22K(N^ε(mdPEG12)3-dPEG4-yl-dPEG12-yl), B25H, B29R, desB30 Human Insulin [Example 18] | 16%
A22K(N^εmPEG2000-Propionyl), B29R, desB30 Human Insulin [Example 2] | 90%
A22K(N^ε(mdPEG12)3-dPEG4-yl), B29R, desB30 Human Insulin [Example 6] | 120%
A14E, A22K(N^+mPEG2000-Propionyl), B25H, B29R, desB30 Human Insulin [Example 16] | 15%
